Results reported in patent publication US20250064717A1, “MANUFACTURE OF COSMETIC CAROTENOID COMPOSITIONS” (Unibar Corporation, priority 2022, published 2025).
≈ marks a conversion by molar mass, not a printed value.

Key:
[1] = tested on: Malassezia furfur (ATCC-14521); test: Antifungal culture microdilution MIC assay; format: cell-based; settings: ATCC14521, 50% reduction of fungal growth, 48-72 hours
Excerpt: (§1) The anti-fungal activity of CAP-50CR and CAP-1.5SE against Malassezia furfur and Candida albicans are compared with the anti-fungal drug ketoconazole by the minimum inhibitory concentration (“MIC”) method.
(§2) The inhibitory effect assay of CAP-50CR and CAP-1.5SE against Malassezia furfur and Candida albicans may be performed as per a culture microdilution reference method. Ketoconazole, an anti-fungal drug, may be used as the standard. Freeze-dried Candida albicans (ATCC-10231) and Malassezia furfur (ATCC-14521) strains may be used as well. A loopful culture of Malassezia furfur and Candida albicans may be streaked on SDA (Sabouraud Dextrose Agar), and incubated at 35±2° C. and 25±2° C. for 48-72 hours, respectively. Finally, cells may be suspended in a RPMI 1640 medium to obtain a final concentration of 1×10^6 CFU/mL. For the evaluation of inhibitory activity, the effect of CAP-50CR and CAP-1.5SE may be examined against strains of Malassezia furfur and Candida albicans cultured in 96-well microplates at different concentrations of 35±2° C. and 25±2° C., respectively, for 48-72 hours.
(§3) Sterility and growth control may also be used. Yeast growth may be determined in an Enzyme-Linked ImmunoSorbent Assay Microplate Reader at 530 nm. […]

[2] = tested on: Candida albicans (ATCC-10231); test: Antifungal culture microdilution MIC assay; format: cell-based; settings: ATCC10231, 50% reduction of fungal growth, 48-72 hours
Excerpt: as §1, §2, §3

MIC50 [1]: 0.48 µg/mL (≈ 0.903 µM) | MIC50 [2]: 0.48 µg/mL (≈ 0.903 µM)
Compound: CC(=O)N1CCN(c2ccc(OCC3COC(Cn4ccnc4)(c4ccc(Cl)cc4Cl)O3)cc2)CC1 (centres unmarked) [Ketoconazole]
